Measured values taken from PubChem BioAssay (NCI).
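96-well plates; 48 h exposure; 5 concentrations. Endpoints by linear interpolation between flanking doses. Not reached: highest tested concentration assigned. The concentration for 50% growth inhibition is given as GI50. Definition used: TGI = concentration required for complete inhibition of growth.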

What was measured:
Assay in all cases: DTP human tumour cell line panel, 48 h
NCI/ADR-RES ovarian = test system: NCI/ADR-RES ovarian
SK-MEL-28 melanoma = test system: SK-MEL-28 melanoma
SNB-75 CNS = test system: SNB-75 CNS
SW-620 colon = test system: SW-620 colon
NCI-H522 lung = test system: NCI-H522 lung
IGROV1 ovarian = test system: IGROV1 ovarian
UACC-257 melanoma = test system: UACC-257 melanoma
RXF 393 renal = test system: RXF 393 renal
M14 melanoma = test system: M14 melanoma
EKVX NSCLC = test system: EKVX NSCLC
DU-145 prostate = test system: DU-145 prostate
COLO 205 colon = test system: COLO 205 colon
BT-549 breast = test system: BT-549 breast
A549 NSCLC = test system: A549 NSCLC
OVCAR-5 ovarian = test system: OVCAR-5 ovarian
SF-539 CNS = test system: SF-539 CNS
SK-MEL-5 melanoma = test system: SK-MEL-5 melanoma
ACHN renal = test system: ACHN renal
HCC-2998 colon = test system: HCC-2998 colon
OVCAR-4 ovarian = test system: OVCAR-4 ovarian
NCI-H226 lung = test system: NCI-H226 lung
KM12 colon = test system: KM12 colon
786-0 renal = test system: 786-0 renal
A498 renal = test system: A498 renal
HCT-15 colon = test system: HCT-15 colon
TK-10 renal = test system: TK-10 renal
HCT-116 colon = test system: HCT-116 colon
RPMI-8226 leukemia = test system: RPMI-8226 leukemia
NCI-H460 lung = test system: NCI-H460 lung
HL-60(TB) leukemia = test system: HL-60(TB) leukemia
SN12C renal = test system: SN12C renal
K-562 leukemia = test system: K-562 leukemia
MCF7 breast = test system: MCF7 breast
OVCAR-8 ovarian = test system: OVCAR-8 ovarian
UACC-62 melanoma = test system: UACC-62 melanoma
NCI-H23 lung = test system: NCI-H23 lung
SK-MEL-2 melanoma = test system: SK-MEL-2 melanoma
OVCAR-3 ovarian = test system: OVCAR-3 ovarian
CCRF-CEM leukemia = test system: CCRF-CEM leukemia
CAKI-1 renal = test system: CAKI-1 renal
SF-268 CNS = test system: SF-268 CNS
U251 CNS = test system: U251 CNS
HT29 colon = test system: HT29 colon
MDA-MB-435 = test system: MDA-MB-435
MOLT-4 leukemia = test system: MOLT-4 leukemia
SF-295 CNS = test system: SF-295 CNS
LOX IMVI melanoma = test system: LOX IMVI melanoma
UO-31 renal = test system: UO-31 renal
SK-OV-3 ovarian = test system: SK-OV-3 ovarian
SR leukemia = test system: SR leukemia
T-47D breast = test system: T-47D breast
SNB-19 CNS = test system: SNB-19 CNS
PC-3 prostate = test system: PC-3 prostate
HOP-92 NSCLC = test system: HOP-92 NSCLC
MDA-MB-231 breast = test system: MDA-MB-231 breast
HS 578T breast = test system: HS 578T breast
HOP-62 NSCLC = test system: HOP-62 NSCLC

## CCOC(=O)/C(=C/c1ccc([N+](=O)[O-])cc1)C(=O)c1ccccc1
NCI/ADR-RES ovarian
  GI50: 3.43 µM
  TGI: 19.8 µM
SK-MEL-28 melanoma
  GI50: 2.1 µM
  TGI: 4.73 µM
SNB-75 CNS
  GI50: 1.72 µM
  TGI: 4.22 µM
SW-620 colon
  GI50: 2.14 µM
  TGI: 4.84 µM
NCI-H522 lung
  GI50: 1.7 µM
  TGI: 3.51 µM
IGROV1 ovarian
  GI50: 2.53 µM
  TGI: 7.4 µM
UACC-257 melanoma
  GI50: 3.12 µM
  TGI: 7.61 µM
RXF 393 renal
  GI50: 2 µM
  TGI: 3.67 µM
M14 melanoma
  GI50: 2.11 µM
  TGI: 5.01 µM
EKVX NSCLC
  GI50: 4.88 µM
  TGI: 17.4 µM
DU-145 prostate
  GI50: 2.08 µM
  TGI: 4.27 µM
COLO 205 colon
  GI50: 1.95 µM
  TGI: 3.89 µM
BT-549 breast
  GI50: 2.04 µM
  TGI: 4.37 µM
A549 NSCLC
  GI50: 6.28 µM
  TGI: 20.6 µM
OVCAR-5 ovarian
  GI50: 2.55 µM
  TGI: 6.93 µM
SF-539 CNS
  GI50: 1.82 µM
  TGI: 3.58 µM
SK-MEL-5 melanoma
  GI50: 1.94 µM
  TGI: 3.62 µM
ACHN renal
  GI50: 2.03 µM
  TGI: 4.35 µM
HCC-2998 colon
  GI50: 1.87 µM
  TGI: 3.43 µM
OVCAR-4 ovarian
  GI50: 3.44 µM
  TGI: 12.9 µM
NCI-H226 lung
  GI50: 2.57 µM
  TGI: 6.45 µM
KM12 colon
  GI50: 2.16 µM
  TGI: 4.65 µM
786-0 renal
  GI50: 1.82 µM
  TGI: 3.45 µM
A498 renal
  GI50: 2.33 µM
  TGI: 5.37 µM
HCT-15 colon
  GI50: 1.99 µM
  TGI: 4.51 µM
TK-10 renal
  GI50: 2.27 µM
  TGI: 6.54 µM
HCT-116 colon
  GI50: 2.33 µM
  TGI: 5.3 µM
RPMI-8226 leukemia
  GI50: 2.34 µM
  TGI: 6.07 µM
NCI-H460 lung
  GI50: 2.69 µM
  TGI: 7.15 µM
HL-60(TB) leukemia
  GI50: 2.34 µM
  TGI: 5.87 µM
SN12C renal
  GI50: 1.76 µM
  TGI: 3.76 µM
K-562 leukemia
  GI50: 3.5 µM
  TGI: 28.7 µM
MCF7 breast
  GI50: 2.32 µM
  TGI: 8.94 µM
OVCAR-8 ovarian
  GI50: 3.73 µM
  TGI: 12 µM
UACC-62 melanoma
  GI50: 1.93 µM
  TGI: 4.28 µM
NCI-H23 lung
  GI50: 2.25 µM
  TGI: 5.56 µM
SK-MEL-2 melanoma
  GI50: 2.24 µM
  TGI: 5.15 µM
OVCAR-3 ovarian
  GI50: 2.56 µM
  TGI: 5.96 µM
CCRF-CEM leukemia
  GI50: 3.03 µM
  TGI: 9.11 µM
CAKI-1 renal
  GI50: 2.56 µM
  TGI: 7.13 µM
SF-268 CNS
  GI50: 2.83 µM
  TGI: 10.7 µM
U251 CNS
  GI50: 2.13 µM
  TGI: 4.48 µM
HT29 colon
  GI50: 2.05 µM
  TGI: 3.83 µM
MDA-MB-435
  GI50: 2.23 µM
  TGI: 5.37 µM
MOLT-4 leukemia
  GI50: 3.01 µM
  TGI: 9.38 µM
SF-295 CNS
  GI50: 2.78 µM
  TGI: 8.5 µM
LOX IMVI melanoma
  GI50: 1.77 µM
  TGI: 3.38 µM
UO-31 renal
  GI50: 1.66 µM
  TGI: 3.18 µM
SK-OV-3 ovarian
  GI50: 11.5 µM
  TGI: 23.6 µM
SR leukemia
  GI50: 2.85 µM
  TGI: > 100 µM
T-47D breast
  GI50: 2.64 µM
  TGI: 8.35 µM
SNB-19 CNS
  GI50: 2.4 µM
  TGI: 5.81 µM
PC-3 prostate
  GI50: 2.46 µM
  TGI: 6.11 µM
HOP-92 NSCLC
  GI50: 2.01 µM
  TGI: 4.45 µM
MDA-MB-231 breast
  GI50: 2.34 µM
  TGI: 5.24 µM
HS 578T breast
  GI50: 3.44 µM
  TGI: 12.8 µM
HOP-62 NSCLC
  GI50: 2.28 µM
  TGI: 6.07 µM
